Laboratory results from ChEMBL document CHEMBL3044730, “Synthesis, antimycobacterial, antiviral, antimicrobial activities, and QSAR studies of nicotinic acid benzylidene hydrazide derivatives” (Med Chem Res, 2012).
Values after ≈ are worked out from the molar mass of the structure shown.

Legend:
Sindbis virus = experiment: Antiviral activity against Sindbis virus infected Vero cells assessed as inhibition of virus-induced cytopathicity; type: functional, organism-based
Coxsackievirus B4 [1] = experiment: Antiviral activity against Human coxsackievirus B4 infected Vero cells assessed as inhibition of virus-induced cytopathicity; type: functional, organism-based; settings: Enterovirus B
[2] = test system: Human immunodeficiency virus 1; experiment: Antiviral activity against Human immunodeficiency virus 1 IIIB infected MT4 cells assessed as inhibition of virus-induced cytopathic effect after 4 days by MTT assay; type: functional, organism-based; settings: MT4, 96 h
Coxsackievirus B4 [3] = experiment: Antiviral activity against Human coxsackievirus B4 infected human HeLa cells assessed as inhibition of virus-induced cytopathicity by microscopy; type: functional, organism-based; settings: Enterovirus B
[4] = test system: Vesicular stomatitis virus; experiment: Antiviral activity against Vesicular stomatitis virus infected human HeLa cells assessed as inhibition of virus-induced cytopathicity by microscopy; type: functional, organism-based
[5] = test system: Respiratory syncytial virus; experiment: Antiviral activity against Respiratory syncytial virus infected human HeLa cells assessed as inhibition of virus-induced cytopathicity by microscopy; type: functional, organism-based
[6] = Cytotoxicity against Homo sapiens (human) HEL cells assessed as alteration in cell morphology by microscopy; type: cell-based
Human respirovirus 3 = experiment: Antiviral activity against Human parainfluenza virus 3 infected Vero cells assessed as inhibition of virus-induced cytopathicity by microscopy; type: functional, organism-based; settings: Human respirovirus 3, Vero
Punta Toro virus = experiment: Antiviral activity against Punta Toro virus infected Vero cells assessed as inhibition of virus-induced cytopathicity; type: functional, organism-based
[7] = Cytotoxicity against Chlorocebus aethiops (African green monkey) Vero cells assessed as alteration in cell morphology by microscopy; type: cell-based; settings: chlorocebus sabaeus
[8] = test system: Mycobacterium tuberculosis; experiment: Antimicrobial activity against Mycobacterium tuberculosis by agar dilution method; type: functional
Escherichia coli = experiment: Antimicrobial activity against Escherichia coli after 24 hr by serial dilution method; type: functional; set-up: unit not given here
[9] = Cytotoxicity against Homo sapiens (human) HeLa cells assessed as alteration in cell morphology by microscopy; type: cell-based
[10] = test system: Human herpesvirus 3 strain Oka vaccine; experiment: Antiviral activity against Human herpesvirus 3 strain Oka vaccine OKA 07-1 (Varicella zoster virus) infected in human HEL cells assessed as inhibition of virus-induced cytopathicity; type: functional, organism-based; settings: Human alphaherpesvirus 3, OKA 07-1, HEL
Vaccinia virus = experiment: Antiviral activity against Vaccinia virus infected human HEL cells assessed as inhibition of virus-induced cytopathicity by microscopy; type: functional, organism-based; settings: Orthopoxvirus vaccinia
Staphylococcus aureus = experiment: Antimicrobial activity against Staphylococcus aureus after 24 hr by serial dilution method; type: functional; set-up: unit not given here
Human alphaherpesvirus 1 [11] = experiment: Antiviral activity against TK(-) aciclovir-resistant Human herpesvirus 1 strain KOS infected in human HEL cells assessed as inhibition of virus-induced cytopathicity; type: functional, organism-based; settings: Human alphaherpesvirus 1, KOS
Candida albicans [12] = experiment: Antimicrobial activity against Candida albicans after 2 days by serial dilution method; type: functional; set-up: unit not given here
[13] = test system: Human immunodeficiency virus 2; experiment: Antiviral activity against Human immunodeficiency virus type 2 (ISOLATE ROD) infected MT4 cells assessed as inhibition of virus-induced cytopathic effect after 4 days by MTT assay; type: functional, organism-based; settings: Human immunodeficiency virus 2, ISOLATE ROD, MT4, 96 h
[14] = Cytotoxicity against Homo sapiens (human) MT4 cells after 4 days by MTT assay; type: cell-based
Human alphaherpesvirus 2 = experiment: Antiviral activity against Human herpesvirus 2 strain G infected human HEL cells assessed as inhibition of virus-induced cytopathicity by microscopy; type: functional, organism-based; settings: Human alphaherpesvirus 2, strain G
[15] = test system: Mammalian orthoreovirus 1; experiment: Antiviral activity against Mammalian orthoreovirus 1 infected Vero cells assessed as inhibition of virus-induced cytopathicity by microscopy; type: functional, organism-based; settings: Mammalian orthoreovirus 1, Vero
Candida albicans [16] = experiment: Antimicrobial activity against Candida albicans after 7 days by serial dilution method; type: functional; set-up: unit not given here
Bacillus subtilis = experiment: Antimicrobial activity against Bacillus subtilis after 24 hr by serial dilution method; type: functional; set-up: unit not given here
Human alphaherpesvirus 1 [17] = experiment: Antiviral activity against Human herpesvirus 1 strain KOS infected in human HEL cells assessed as inhibition of virus-induced cytopathicity by microscopy by microscopy; type: functional, organism-based; settings: Human alphaherpesvirus 1, KOS
[18] = test system: Human herpesvirus 5 strain AD169; experiment: Antiviral activity against Human herpesvirus 5 strain AD169 Davis infected human HEL cells assessed as inhibition of virus-induced cytopathicity by microscopy; type: functional, organism-based; settings: Human betaherpesvirus 5, Davis

Compound | EC50 (Sindbis virus) [µg/mL] | EC50 (Coxsackievirus B4 [1]) [µg/mL] | EC50 [2] [µg/mL] | EC50 (Coxsackievirus B4 [3]) [µg/mL] | EC50 [4] [µg/mL] | EC50 [5] [µg/mL] | CC50 [6] [µg/mL] | MCC [6] [µg/mL] | EC50 (Human respirovirus 3) [µg/mL] | EC50 (Punta Toro virus) [µg/mL] | MCC [7] [µg/mL] | MIC [8] [µg/mL] | -logMIC (Escherichia coli) | MCC [9] [µg/mL] | EC50 [10] [µg/mL] | EC50 (Vaccinia virus) [µg/mL] | -logMIC (Staphylococcus aureus) | EC50 (Human alphaherpesvirus 1 [11]) [µg/mL] | -logMIC (Candida albicans [12]) | EC50 [13] [µg/mL] | other results
O=C(N/N=C/c1ccc(Cl)cc1)c1cccnc1 | > 100 | > 100 | > 76 | > 100 | > 100 | > 100 | 29 (≈ 112 µM) | > 100 | > 100 | > 100 | > 100 | 25 (≈ 96.3 µM) | 1.32 | > 100 | > 100 | > 100 | 1.32 | > 100 | 1.32 | > 76 | CC50 at 96 h [14]: 76 µg/mL (≈ 293 µM); EC50 (Human alphaherpesvirus 2): > 100 µg/mL; EC50 [15]: > 100 µg/mL; -logMIC (Candida albicans [16]): 1.92; -logMIC (Bacillus subtilis): 1.02; EC50 (Human alphaherpesvirus 1 [17]): > 100 µg/mL; EC50 [18]: > 100 µg/mL
O=C(N/N=C/c1cccc(Br)c1)c1cccnc1 | > 100 | > 100 | > 66 | > 100 | > 100 | > 100 | 55 (≈ 181 µM) | > 100 | > 100 | > 100 | ≥ 100 | > 25 | 1.39 | ≥ 100 | > 100 | > 100 | 1.09 | > 100 | 1.38 | > 66 | CC50 at 96 h [14]: 66 µg/mL (≈ 217 µM); EC50 (Human alphaherpesvirus 2): > 100 µg/mL; EC50 [15]: > 100 µg/mL; -logMIC (Candida albicans [16]): 1.99; -logMIC (Bacillus subtilis): 1.39; EC50 (Human alphaherpesvirus 1 [17]): > 100 µg/mL; EC50 [18]: > 100 µg/mL
O=C(N/N=C/c1cccc(Cl)c1)c1cccnc1 | > 100 | > 100 | > 62 | > 100 | > 100 | > 100 | 53 (≈ 204 µM) | > 100 | > 100 | > 100 | > 100 | > 25 | 1.02 | > 100 | > 100 | > 100 | 1.32 | > 100 | 1.32 | > 62 | CC50 at 96 h [14]: 62 µg/mL (≈ 239 µM); EC50 (Human alphaherpesvirus 2): > 100 µg/mL; EC50 [15]: 34 µg/mL (≈ 131 µM); -logMIC (Candida albicans [16]): 1.92; -logMIC (Bacillus subtilis): 1.02; EC50 (Human alphaherpesvirus 1 [17]): > 100 µg/mL; EC50 [18]: > 100 µg/mL
O=C(N/N=C/c1ccccc1Cl)c1cccnc1 | > 100 | > 100 | > 0.57 | > 20 | > 20 | > 20 | 12 (≈ 46.2 µM) | > 100 | > 100 | > 100 | > 100 | > 25 | 1.02 | 100 | > 100 | > 100 | 1.32 | > 100 | 1.32 | > 0.57 | CC50 at 96 h [14]: ≥ 0.57 µg/mL; EC50 (Human alphaherpesvirus 2): > 100 µg/mL; EC50 [15]: > 100 µg/mL; -logMIC (Candida albicans [16]): 1.32; -logMIC (Bacillus subtilis): 1.02; EC50 (Human alphaherpesvirus 1 [17]): > 100 µg/mL; EC50 [18]: > 100 µg/mL
O=C(N/N=C/c1ccccc1Br)c1cccnc1 | > 100 | > 100 | > 0.22 | > 100 | > 100 | > 100 | 2.6 (≈ 8.55 µM) | 100 | > 100 | > 100 | > 100 | > 25 | 1.39 | > 100 | > 51 | > 20 | 1.09 | > 20 | 1.39 | > 0.22 | CC50 at 96 h [14]: ≥ 0.22 µg/mL; EC50 (Human alphaherpesvirus 2): > 20 µg/mL; EC50 [15]: > 100 µg/mL; -logMIC (Candida albicans [16]): 1.69; -logMIC (Bacillus subtilis): 1.39; EC50 (Human alphaherpesvirus 1 [17]): > 20 µg/mL; EC50 [18]: > 100 µg/mL
O=C(N/N=C/c1ccc(Br)cc1)c1cccnc1 | > 100 | > 100 | > 61 | > 100 | > 100 | > 100 | 48 (≈ 158 µM) | > 100 | > 100 | > 100 | > 100 | 25 (≈ 82.2 µM) | 1.39 | > 100 | > 100 | > 100 | 1.09 | > 100 | 1.39 | > 61 | CC50 at 96 h [14]: 61 µg/mL (≈ 201 µM); EC50 (Human alphaherpesvirus 2): > 100 µg/mL; EC50 [15]: > 100 µg/mL; -logMIC (Candida albicans [16]): 1.39; -logMIC (Bacillus subtilis): 1.39; EC50 (Human alphaherpesvirus 1 [17]): > 100 µg/mL; EC50 [18]: > 100 µg/mL
O=C(N/N=C/c1ccc(F)cc1)c1cccnc1 | > 100 | > 100 | > 125 | > 100 | > 100 | > 100 | > 100 | > 100 | > 100 | > 100 | > 100 | 25 (≈ 103 µM) | 1.29 | > 100 | > 100 | > 100 | 1.29 | > 100 | 1.29 | > 125 | CC50 at 96 h [14]: > 125 µg/mL; EC50 (Human alphaherpesvirus 2): > 100 µg/mL; EC50 [15]: > 100 µg/mL; -logMIC (Candida albicans [16]): 1.59; -logMIC (Bacillus subtilis): 1.29; EC50 (Human alphaherpesvirus 1 [17]): > 100 µg/mL; EC50 [18]: > 100 µg/mL
O=C(N/N=C/c1ccccc1O)c1cccnc1 [N'-(2-HYDROXYBENZYLIDENE)NICOTINOHYDRAZIDE] | > 0.8 | > 0.8 | > 0.61 | > 0.8 | > 0.8 | > 0.8 | 0.42 (≈ 1.74 µM) | ≥ 4 | > 0.8 | > 0.8 | 4 | > 25 | 1.29 | 4 | > 2.2 | > 4 | 1.29 | > 4 | 1.28 | > 0.61 | CC50 at 96 h [14]: 0.61 µg/mL (≈ 2.53 µM); EC50 (Human alphaherpesvirus 2): > 4 µg/mL; EC50 [15]: > 0.8 µg/mL; -logMIC (Candida albicans [16]): 1.29; -logMIC (Bacillus subtilis): 1.59; EC50 (Human alphaherpesvirus 1 [17]): > 4 µg/mL; EC50 [18]: > 0.8 µg/mL
O=C(N/N=C/c1ccccc1)c1cccnc1 [NICOTINIC ACID BENZYLIDENE-HYDRAZIDE] | > 100 | > 100 | > 125 | > 20 | > 20 | > 20 | > 100 | > 100 | > 100 | > 100 | > 100 | > 25 | 1.26 | 100 | > 100 | > 100 | 0.35 | > 100 | 1.25 | > 125 | CC50 at 96 h [14]: > 125 µg/mL; EC50 (Human alphaherpesvirus 2): > 100 µg/mL; EC50 [15]: > 100 µg/mL; -logMIC (Candida albicans [16]): 1.86; -logMIC (Bacillus subtilis): 0.95; EC50 (Human alphaherpesvirus 1 [17]): > 100 µg/mL; EC50 [18]: > 100 µg/mL
